Earlier results on one compound are cited in patent publication US8097636B2, “Heterocyclic derivatives as modulators of ion channels” (Vertex Pharmaceuticals Incorporated, priority 2007, dated 2012).

Each structure is given as a SMILES string. pIC50: −log10 of the molar value.

A word on the pIC50: it is the IC50 on a negative log10 scale, so that one unit is a factor of ten.

This data set deals with NaV1.3 (Homo sapiens, UniProt Q9NY46). Particulars: read-out: TTX IC50.
Sequence of NaV1.3 (Q9NY46 whole entry, looked up): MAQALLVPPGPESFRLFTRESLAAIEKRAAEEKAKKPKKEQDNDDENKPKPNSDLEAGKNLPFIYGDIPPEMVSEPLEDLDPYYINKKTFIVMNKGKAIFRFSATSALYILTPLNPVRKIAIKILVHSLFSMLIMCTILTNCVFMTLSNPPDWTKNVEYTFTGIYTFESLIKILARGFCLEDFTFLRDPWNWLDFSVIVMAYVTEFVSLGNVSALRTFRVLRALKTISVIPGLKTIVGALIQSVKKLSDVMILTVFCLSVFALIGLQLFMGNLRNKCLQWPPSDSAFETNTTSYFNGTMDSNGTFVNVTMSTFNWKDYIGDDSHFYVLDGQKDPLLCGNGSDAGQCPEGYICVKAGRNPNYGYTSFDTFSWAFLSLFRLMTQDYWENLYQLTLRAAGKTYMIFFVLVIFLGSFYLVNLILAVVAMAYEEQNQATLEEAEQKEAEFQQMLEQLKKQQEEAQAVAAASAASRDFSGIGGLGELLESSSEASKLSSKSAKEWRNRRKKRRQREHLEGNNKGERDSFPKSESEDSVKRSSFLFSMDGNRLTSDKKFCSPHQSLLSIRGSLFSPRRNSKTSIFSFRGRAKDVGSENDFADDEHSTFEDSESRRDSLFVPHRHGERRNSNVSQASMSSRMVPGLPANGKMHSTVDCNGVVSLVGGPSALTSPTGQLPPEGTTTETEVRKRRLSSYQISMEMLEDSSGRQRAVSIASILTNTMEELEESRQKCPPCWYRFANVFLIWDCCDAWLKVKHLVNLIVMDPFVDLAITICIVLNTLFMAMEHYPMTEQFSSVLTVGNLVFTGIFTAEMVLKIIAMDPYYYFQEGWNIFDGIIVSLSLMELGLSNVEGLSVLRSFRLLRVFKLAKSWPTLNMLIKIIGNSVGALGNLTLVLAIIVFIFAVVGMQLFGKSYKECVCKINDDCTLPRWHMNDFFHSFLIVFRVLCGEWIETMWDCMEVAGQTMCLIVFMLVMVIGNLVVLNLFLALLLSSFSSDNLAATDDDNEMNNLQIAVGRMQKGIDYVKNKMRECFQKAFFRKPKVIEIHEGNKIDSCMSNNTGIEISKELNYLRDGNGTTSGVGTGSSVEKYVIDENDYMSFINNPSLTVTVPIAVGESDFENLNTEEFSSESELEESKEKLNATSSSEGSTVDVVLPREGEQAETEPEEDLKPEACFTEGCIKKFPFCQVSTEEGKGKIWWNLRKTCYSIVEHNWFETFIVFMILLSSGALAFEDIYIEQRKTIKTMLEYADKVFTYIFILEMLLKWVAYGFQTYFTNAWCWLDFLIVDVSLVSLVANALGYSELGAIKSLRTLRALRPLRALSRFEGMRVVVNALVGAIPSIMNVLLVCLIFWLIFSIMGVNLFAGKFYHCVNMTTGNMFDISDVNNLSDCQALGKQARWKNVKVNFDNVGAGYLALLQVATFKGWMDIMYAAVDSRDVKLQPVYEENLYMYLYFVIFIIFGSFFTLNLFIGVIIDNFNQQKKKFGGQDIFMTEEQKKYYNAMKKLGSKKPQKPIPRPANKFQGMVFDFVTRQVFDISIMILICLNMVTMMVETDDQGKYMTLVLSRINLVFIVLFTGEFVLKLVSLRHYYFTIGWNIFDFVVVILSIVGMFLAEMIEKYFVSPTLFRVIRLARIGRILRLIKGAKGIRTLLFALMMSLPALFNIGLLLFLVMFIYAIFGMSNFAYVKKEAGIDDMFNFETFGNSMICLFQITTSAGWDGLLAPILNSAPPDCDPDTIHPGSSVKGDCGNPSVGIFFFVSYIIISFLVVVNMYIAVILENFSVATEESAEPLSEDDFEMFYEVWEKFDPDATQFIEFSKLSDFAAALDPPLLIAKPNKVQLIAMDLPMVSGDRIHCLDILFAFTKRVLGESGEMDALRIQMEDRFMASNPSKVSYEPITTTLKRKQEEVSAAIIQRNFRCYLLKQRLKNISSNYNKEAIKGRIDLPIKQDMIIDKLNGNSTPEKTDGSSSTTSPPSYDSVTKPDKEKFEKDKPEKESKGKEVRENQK

Turning to `NC1=N[C@H](O)[C@H]2[C@H]3O[C@]4(O)O[C@@H]([C@@H](O)[C@@]2(N1)[C@@H]4O)[C@]3(O)CO` [TTX, tetrodotoxin], the pIC50 was 7.82.
